Like-named read-outs stand apart in the source and are kept apart here.
Legend:
TRKB = TRKB (Homo sapiens (Human), UniProt Q16620); assay: Mobility shift assay, TRKB kinase; details: read-out: TRKB IC50, ATP 71.2 μM
Method: The inhibitory activity of compounds on TRKA, TRKB, TRKC and ROS1 kinase was analyzed with Mobility shift assay. The screening platform is MSA based microfluidic chip technology, which applies the basic concept of capillary electrophoresis to microfluidic environment. The substrate used in the experiment is a poly-peptide labeled with fluorescent. Under the catalysis of enzyme in the reaction system, the substrate is transformed into a product, with the charge changed accordingly. MSA technology could detect the substrate and the product with different charge separately.
The operation is described as follows:
The compound powder was dissolved in 100% DMSO (Sigma, Cat. D8418-1l) to prepare a 10 mM storage solution. […] The reaction was carried out at room temperature for 30 min/40 min/20 min/20 min respectively. After the reaction was terminated, the conversion rate was read by Caliper EZ Reader II.
Conversion %_Sample: conversion rate of sample;
Conversion %_Min: mean value of negative control, representing the conversion rate without enzyme activity;
Conversion %_Max: mean value of positive control, which represents the conversion rate reading without compound inhibition.
Taking the log value of concentration as X axis and the percentage inhibition rate as Y axis, the dose response curve was fitted by the analysis software GraphPad Prism 5, thus the IC50 value of each compound on enzyme activity inhibition was obtained.

TRKC = TRKC (Homo sapiens (Human), UniProt Q16288); assay: Mobility shift assay, TRKC kinase; details: read-out: TRKC IC50, ATP 44.4 μM
Ba/F3 LMNA-NTRK1-G595R = assay: Cell proliferation inhibition (CellTiter-Glo), Ba/F3 LMNA-NTRK1-G595R; type: cell-based; details: Mus musculus, BaF3, 72 h
From the text: (§1) 4. Inhibitory Effect of Compounds on the Proliferation of TRK Fusion and Mutant Stable Cell Lines (IC50)
(§2) Six cell lines including Ba/F3 LMNA-NTRK1-WT, Ba/F3 LMNA-NTRK1-G595R, Ba/F3 ETV6-NTRK2-WT, Ba/F3 ETV6-NTRK2-G639R, Ba/F3 ETV6-NTRK2-G639R and Ba/F3 ETV6-NTRK3-G623R were used in this experiment.
(§3) The operation is described briefly as follows:
(§4) The cells in logarithmic growth phase were harvested to ensure that the cell viability was above 90%. […] Then each well containing the cells of the 96-well plate was added the compound solutions, 3 wells for each compound solution, and continued to incubate for another 72 hrs. Then CellTiter-Glo® kit (Promega, Cat #G7572) was used to do the detection. First, the CTG reagent was melted and the cell plate was balanced to room temperature. The same volume of CTG solution was added into each well and vibrated on the shaker for 5 minutes to lyse the cells. The cell plate was kept at room temperature for 20 minutes to stabilize the luminescent signal. […] Cell survival rate (%)=(1umdrug−1ummedium)/(1umcell−lummedium)×100%

Ba/F3 LMNA-NTRK1-WT = assay: Cell proliferation inhibition (CellTiter-Glo), Ba/F3 LMNA-NTRK1-WT; type: cell-based; details: Mus musculus, BaF3, 72 h
From the text: as §1, §2, §3, §4

Ba/F3 ETV6-NTRK2-WT = assay: Cell proliferation inhibition (CellTiter-Glo), Ba/F3 ETV6-NTRK2-WT; type: cell-based; details: Mus musculus, BaF3, 72 h, 72 hrs, read-out: IC50 proliferation Ba/F3 ETV6-NTRK2-WT
Method: as §1
Six cell lines including Ba/F3 LMNA-NTRK1-WT, Ba/F3 LMNA-NTRK1-G595R, Ba/F3 ETV6-NTRK2-WT, Ba/F3 ETV6-NTRK2-G639R, Ba/F3 ETV6-NTRK2-G639R and Ba/F3 ETV6-NTRK3-G623R were used in this experiment. For the six cell lines, the maximum test concentration of the compound was 1 μM, 1 μM, 10 μM, […], 1 μM and 10 μM, were 3.16-fold gradient diluted to obtain 9 samples.
as §3
The cells in logarithmic growth phase were harvested to ensure that the cell viability was above 90%. 3000 cell/well were seeded in 96-well plate (Corning, Cat #3603). The cells were incubated overnight with 5% CO2, 95% humidity at 37° C. Then each well containing the cells of the 96-well plate was added the compound solutions, 3 wells for each compound solution, and continued to incubate for another 72 hrs. Then CellTiter-Glo® kit (Promega, Cat #G7572) was used to do the detection. First, the CTG reagent was melted and the cell plate was balanced to room temperature. The same volume of CTG solution was added into each well and vibrated on the shaker for 5 minutes to lyse the cells. The cell plate was kept at room temperature for 20 minutes to stabilize the luminescent signal. The luminescent value was collected by SpectraMax microplate detector (MD, 2104-0010A). […] Cell survival rate (%)=(1umdrug−1ummedium)/(1umcell−lummedium)×100%

ROS1-G2032R = ROS1-G2032R (Homo sapiens (Human), UniProt P08922, G2032R); assay: LanceUltra kinase activity assay, ROS1-G2032R; type: biochemical; details: 2.6 μM ATP
Method: 5 μl 40 mM EDTA was used to stop the reaction. Then 2 nM Europium-anti-phosphotyrosine (PT66) (PerkinElmer, Cat. AD0069) was added and incubated at room temperature for 60 mins. […] The IC50 values of the compounds were calculated using XLFIT5 (IDBS) software.

Chain of ROS1-G2032R (P08922 28-2347 G2032R): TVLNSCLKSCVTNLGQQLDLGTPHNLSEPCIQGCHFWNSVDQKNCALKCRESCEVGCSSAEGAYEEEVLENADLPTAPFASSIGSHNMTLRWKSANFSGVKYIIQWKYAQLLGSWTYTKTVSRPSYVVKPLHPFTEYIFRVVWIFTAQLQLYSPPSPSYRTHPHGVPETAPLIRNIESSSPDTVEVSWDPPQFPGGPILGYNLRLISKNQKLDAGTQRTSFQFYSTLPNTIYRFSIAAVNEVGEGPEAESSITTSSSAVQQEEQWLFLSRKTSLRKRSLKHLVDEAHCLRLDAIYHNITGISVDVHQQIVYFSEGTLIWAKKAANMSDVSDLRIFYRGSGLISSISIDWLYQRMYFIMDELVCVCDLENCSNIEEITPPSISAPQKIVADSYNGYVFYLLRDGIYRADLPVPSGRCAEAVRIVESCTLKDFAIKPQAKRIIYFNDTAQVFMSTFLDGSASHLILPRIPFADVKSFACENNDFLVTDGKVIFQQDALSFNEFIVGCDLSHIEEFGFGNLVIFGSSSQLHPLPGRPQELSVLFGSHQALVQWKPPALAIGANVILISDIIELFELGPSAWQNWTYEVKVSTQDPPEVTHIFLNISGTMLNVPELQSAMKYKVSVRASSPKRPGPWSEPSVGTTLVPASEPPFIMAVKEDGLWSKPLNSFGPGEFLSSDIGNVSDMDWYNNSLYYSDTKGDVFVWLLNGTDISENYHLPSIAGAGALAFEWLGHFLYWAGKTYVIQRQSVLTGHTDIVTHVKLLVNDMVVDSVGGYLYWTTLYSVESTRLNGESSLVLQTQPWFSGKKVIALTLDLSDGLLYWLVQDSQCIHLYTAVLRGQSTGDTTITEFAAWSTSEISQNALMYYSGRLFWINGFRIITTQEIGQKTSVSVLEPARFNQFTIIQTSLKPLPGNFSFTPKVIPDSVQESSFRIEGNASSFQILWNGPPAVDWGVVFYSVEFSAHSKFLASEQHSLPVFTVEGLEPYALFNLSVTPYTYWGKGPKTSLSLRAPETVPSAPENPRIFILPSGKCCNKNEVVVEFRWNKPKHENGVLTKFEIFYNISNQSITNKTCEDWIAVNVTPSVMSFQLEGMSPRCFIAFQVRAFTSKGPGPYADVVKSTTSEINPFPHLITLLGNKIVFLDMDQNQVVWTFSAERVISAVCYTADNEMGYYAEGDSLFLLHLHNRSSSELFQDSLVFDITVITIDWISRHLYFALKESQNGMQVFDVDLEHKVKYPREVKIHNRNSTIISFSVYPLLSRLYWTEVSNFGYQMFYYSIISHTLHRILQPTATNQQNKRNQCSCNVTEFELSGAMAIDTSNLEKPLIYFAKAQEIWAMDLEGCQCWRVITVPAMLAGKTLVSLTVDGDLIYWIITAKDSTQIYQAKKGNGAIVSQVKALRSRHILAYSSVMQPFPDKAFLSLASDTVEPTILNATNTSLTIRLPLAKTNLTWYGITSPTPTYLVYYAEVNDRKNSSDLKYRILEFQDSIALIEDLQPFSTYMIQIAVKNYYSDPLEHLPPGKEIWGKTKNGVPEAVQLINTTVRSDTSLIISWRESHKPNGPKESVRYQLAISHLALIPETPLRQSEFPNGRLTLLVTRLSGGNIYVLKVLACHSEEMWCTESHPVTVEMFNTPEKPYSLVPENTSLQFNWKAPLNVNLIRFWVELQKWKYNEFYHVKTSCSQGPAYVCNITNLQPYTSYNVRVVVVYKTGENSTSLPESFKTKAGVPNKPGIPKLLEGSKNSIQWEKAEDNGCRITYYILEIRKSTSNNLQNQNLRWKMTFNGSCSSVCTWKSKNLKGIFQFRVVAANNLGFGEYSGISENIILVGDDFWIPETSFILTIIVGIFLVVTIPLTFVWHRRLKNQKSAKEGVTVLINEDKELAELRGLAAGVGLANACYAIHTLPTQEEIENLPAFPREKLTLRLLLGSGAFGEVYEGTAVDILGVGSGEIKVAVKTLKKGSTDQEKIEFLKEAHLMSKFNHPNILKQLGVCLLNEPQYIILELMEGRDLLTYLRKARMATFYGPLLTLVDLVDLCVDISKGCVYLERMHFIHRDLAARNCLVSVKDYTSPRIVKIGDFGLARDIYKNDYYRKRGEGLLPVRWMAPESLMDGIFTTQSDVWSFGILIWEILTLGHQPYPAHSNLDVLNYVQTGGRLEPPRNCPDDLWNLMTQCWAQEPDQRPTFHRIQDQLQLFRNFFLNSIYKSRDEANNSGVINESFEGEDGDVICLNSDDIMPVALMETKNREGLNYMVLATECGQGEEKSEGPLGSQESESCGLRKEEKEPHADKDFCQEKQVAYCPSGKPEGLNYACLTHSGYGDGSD
Chain of TRKB (Q16620 32-822): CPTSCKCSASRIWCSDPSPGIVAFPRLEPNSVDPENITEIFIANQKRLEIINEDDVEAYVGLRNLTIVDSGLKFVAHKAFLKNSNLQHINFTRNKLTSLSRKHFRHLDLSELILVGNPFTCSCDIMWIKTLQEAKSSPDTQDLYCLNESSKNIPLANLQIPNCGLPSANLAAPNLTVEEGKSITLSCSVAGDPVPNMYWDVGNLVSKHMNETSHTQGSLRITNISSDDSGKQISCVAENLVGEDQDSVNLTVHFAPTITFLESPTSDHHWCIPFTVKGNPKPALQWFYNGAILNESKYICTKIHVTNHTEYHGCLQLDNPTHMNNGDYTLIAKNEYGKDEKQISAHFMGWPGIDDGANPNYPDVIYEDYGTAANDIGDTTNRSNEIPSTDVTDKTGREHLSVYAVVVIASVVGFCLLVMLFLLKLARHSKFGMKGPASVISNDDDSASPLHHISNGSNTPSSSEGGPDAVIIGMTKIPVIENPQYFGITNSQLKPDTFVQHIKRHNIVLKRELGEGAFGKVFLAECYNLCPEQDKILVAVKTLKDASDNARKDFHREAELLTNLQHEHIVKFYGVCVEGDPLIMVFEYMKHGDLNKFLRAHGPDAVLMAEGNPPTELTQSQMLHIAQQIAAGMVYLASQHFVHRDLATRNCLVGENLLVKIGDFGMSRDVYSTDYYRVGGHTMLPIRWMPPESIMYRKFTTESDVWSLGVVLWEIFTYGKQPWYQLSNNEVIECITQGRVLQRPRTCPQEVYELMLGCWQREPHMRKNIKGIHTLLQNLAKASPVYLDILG
Chain of TRKC (Q16288 other isoform, or with tags, fused parts or gaps isoform Q16288-3): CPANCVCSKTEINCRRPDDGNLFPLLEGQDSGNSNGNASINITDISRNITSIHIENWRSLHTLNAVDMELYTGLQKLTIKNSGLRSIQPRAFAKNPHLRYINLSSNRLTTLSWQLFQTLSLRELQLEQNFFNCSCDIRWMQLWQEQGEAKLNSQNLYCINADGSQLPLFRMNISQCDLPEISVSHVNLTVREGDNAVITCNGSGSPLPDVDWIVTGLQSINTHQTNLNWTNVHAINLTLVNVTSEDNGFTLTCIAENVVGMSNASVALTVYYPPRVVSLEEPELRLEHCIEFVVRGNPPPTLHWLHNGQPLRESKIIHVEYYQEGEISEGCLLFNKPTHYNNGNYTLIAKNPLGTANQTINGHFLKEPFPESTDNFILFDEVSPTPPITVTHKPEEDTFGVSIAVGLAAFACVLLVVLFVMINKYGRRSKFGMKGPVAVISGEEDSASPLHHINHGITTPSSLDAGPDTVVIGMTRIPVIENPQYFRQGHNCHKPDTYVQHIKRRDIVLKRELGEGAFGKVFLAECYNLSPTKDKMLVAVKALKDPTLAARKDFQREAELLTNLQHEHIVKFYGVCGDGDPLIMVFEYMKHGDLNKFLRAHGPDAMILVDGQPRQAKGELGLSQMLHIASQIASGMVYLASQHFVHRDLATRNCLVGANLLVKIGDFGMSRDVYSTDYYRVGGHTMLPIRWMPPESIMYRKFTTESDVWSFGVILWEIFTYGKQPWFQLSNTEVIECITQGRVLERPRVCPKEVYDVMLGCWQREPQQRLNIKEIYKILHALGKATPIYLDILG

**Q.** `C[C@H]1COC(=O)c2cnn3ccc(nc23)N[C@H](C)c2cc(F)ccc2O1` [Example 1, (1^3E,1^4E,3R,6S)-4^5-fluoro-3,6-dimethyl-5,8-dioxa-2-aza-1(5,3)-pyrazolo[1,5-a]pyrimidina-4(1,2)-benzenacyclononaphan-9-one] was tested. Which IC50 (TRKB) did it give?
**A.** The IC50 was 0.5 nM.

**Q.** And the IC50 (TRKC)?
**A.** Its IC50 is 0.61 nM.

**Q.** What about the IC50 (Ba/F3 LMNA-NTRK1-G595R; test batch marked #) of the same compound?
**A.** The IC50 was 1.34 nM.

**Q.** And the IC50 (Ba/F3 LMNA-NTRK1-G595R; test batch marked *)?
**A.** Its IC50 is 7.8 nM.

**Q.** What about the IC50 (Ba/F3 LMNA-NTRK1-WT; test batch marked #) of the same compound?
**A.** The IC50 was 1.04 nM.

**Q.** And the IC50 (Ba/F3 LMNA-NTRK1-WT; test batch marked *)?
**A.** Its IC50 is 5.4 nM.

**Q.** And the IC50 (Ba/F3 ETV6-NTRK2-WT; test batch marked #)?
**A.** The IC50 was 4.24 nM.

**Q.** What about the IC50 (Ba/F3 ETV6-NTRK2-WT; test batch marked *) of the same compound?
**A.** Its IC50 is 7.8 nM.

**Q.** What about the IC50 (ROS1-G2032R) of the same compound?
**A.** Its IC50 is 0.36 nM.

Source: patent US12129258B2, “Diaryl macrocyclic compound and pharmaceutical composition, and use thereof” (PrimeGene (Beijing) Co., Ltd., priority 2018, dated 2024)
